The values that follow come from patent US20230126391A1, “ALPHA-METHYL-SUBSTITUTED DIAZABICYCLO[4.3.1] DECANE DERIVATIVES FOR TREATMENT OF PSYCHIATRIC DISORDERS” (priority 2020, published 2023).

Read-outs that look alike come from different tables or passages of the source.

For test [1], the target named is T1, FKBP12 (Homo sapiens, UniProt P62942). As to the kind of experiment: Binding affinity of ligands with large RA (E3-ligase CRBN, PEG linker). As to conditions: * = detection limit. The source says: (§1) Further example of a diazabicyclo[4.3.1]decane with a large, bulky substituent in RA. The n corresponds to a varying PEG-linker length of 1-5. All tested ligands with a S-methyl group display increased binding affinity to the tested FKBPs while all R-isomers display decreased binding affinity as shown in the table below. In all cases, the addition of the methyl group in S-configuration increases the affinity to all measured FKBPs substantially.
T1 sequence (P62942 whole entry): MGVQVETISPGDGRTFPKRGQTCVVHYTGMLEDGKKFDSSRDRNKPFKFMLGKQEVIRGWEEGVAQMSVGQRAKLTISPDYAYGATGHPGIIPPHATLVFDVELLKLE

The target of test [2] is T2, FKBP12.6 (Homo sapiens, UniProt P68106). The description is as above. As to conditions: * = detection limit.
T2 sequence (P68106 whole entry): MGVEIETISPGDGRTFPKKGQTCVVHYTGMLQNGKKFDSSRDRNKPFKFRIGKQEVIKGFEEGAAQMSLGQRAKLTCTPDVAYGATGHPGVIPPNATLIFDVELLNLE
Source text: as §1

The target in a further test is T3, FKBP51FK1 (Homo sapiens, UniProt Q13451).
T3 construct: FKBP51FK1
T3 sequence (Q13451 42-130 limits assumed): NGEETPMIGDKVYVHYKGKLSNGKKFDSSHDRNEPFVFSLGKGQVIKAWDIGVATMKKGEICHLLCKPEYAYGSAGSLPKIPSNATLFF
The test is described as above.
Source text: as §1

The target of another test is T4, FKBP52FK1 (Homo sapiens, UniProt Q02790).
T4 construct: FKBP52FK1
T4 sequence (Q02790 50-138 limits assumed): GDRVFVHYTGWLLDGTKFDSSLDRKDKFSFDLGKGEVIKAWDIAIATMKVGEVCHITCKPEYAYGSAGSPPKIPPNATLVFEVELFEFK
Described as above.
Source text: as §1

A further test has as its target T5, FKBP52 (Homo sapiens, UniProt Q02790).
T5 sequence (Q02790 1-459): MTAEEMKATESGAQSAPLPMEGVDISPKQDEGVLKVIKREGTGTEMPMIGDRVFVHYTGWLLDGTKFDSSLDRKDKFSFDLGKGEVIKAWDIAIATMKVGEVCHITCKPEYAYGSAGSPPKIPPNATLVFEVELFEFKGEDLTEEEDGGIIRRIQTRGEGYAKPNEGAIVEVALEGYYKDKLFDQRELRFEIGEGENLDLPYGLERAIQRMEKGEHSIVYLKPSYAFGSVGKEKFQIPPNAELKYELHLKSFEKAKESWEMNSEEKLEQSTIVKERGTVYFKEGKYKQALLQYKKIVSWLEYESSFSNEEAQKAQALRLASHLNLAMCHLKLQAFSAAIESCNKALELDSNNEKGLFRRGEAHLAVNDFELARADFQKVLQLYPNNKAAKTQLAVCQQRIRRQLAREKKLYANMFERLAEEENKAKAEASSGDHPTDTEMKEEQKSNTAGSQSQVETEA
Put plainly: FP assay, binding to human FKBPs (Table 1). As to conditions: fluorescence polarization assay.

In test [3] the target is T1, FKBP12. As to the kind of experiment: FP assay, binding to human FKBPs (Table 1). As to conditions: fluorescence polarization assay.
The target of a further test is LpMip (Legionella pneumophila subsp. pneumophila, UniProt Q5ZXE0). As to the kind of experiment: biochemical. The class given is binding.
LpMip, sequence (Q5ZXE0 21-233 limits assumed): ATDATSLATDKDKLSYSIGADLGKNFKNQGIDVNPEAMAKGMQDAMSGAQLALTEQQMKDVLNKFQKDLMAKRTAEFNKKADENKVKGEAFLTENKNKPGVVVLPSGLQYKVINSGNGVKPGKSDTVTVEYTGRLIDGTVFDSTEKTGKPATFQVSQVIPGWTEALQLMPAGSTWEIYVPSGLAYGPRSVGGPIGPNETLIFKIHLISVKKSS
Another test deals with T6, FKBP51 (Homo sapiens, UniProt Q13451).
T6 sequence (Q13451 1-457): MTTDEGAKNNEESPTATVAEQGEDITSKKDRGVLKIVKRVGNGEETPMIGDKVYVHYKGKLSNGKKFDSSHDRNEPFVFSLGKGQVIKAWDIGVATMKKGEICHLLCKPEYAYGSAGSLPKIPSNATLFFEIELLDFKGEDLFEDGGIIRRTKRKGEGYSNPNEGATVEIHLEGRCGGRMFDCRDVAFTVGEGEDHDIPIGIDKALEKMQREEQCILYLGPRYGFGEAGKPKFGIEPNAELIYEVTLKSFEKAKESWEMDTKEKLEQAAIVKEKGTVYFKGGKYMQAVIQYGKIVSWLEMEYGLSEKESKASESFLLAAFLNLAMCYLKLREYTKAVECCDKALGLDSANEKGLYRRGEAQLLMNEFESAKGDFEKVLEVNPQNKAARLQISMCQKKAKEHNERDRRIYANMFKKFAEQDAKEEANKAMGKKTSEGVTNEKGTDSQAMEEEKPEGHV
Put plainly: FP assay, binding to human FKBPs (Table 1). As to conditions: fluorescence polarization assay.

Test [4] concerns the target T2, FKBP12.6. As to the kind of experiment: FP assay, binding to human FKBPs (Table 1). As to conditions: fluorescence polarization assay.

With `C=C[C@H]1CN(Cc2cn(CCOCCOCC(=O)Nc3cccc4c3C(=O)N(C3CCC(=O)NC3=O)C4=O)nn2)C(=O)[C@@H]2CCC[C@H]1N2S(=O)(=O)c1cc(Cl)cc(Cl)c1` (stereo partly drawn) [MTQ504], the inhibition constant (Ki) on FKBP12 [1] worked out at 2.1 ± 0.2 nM; at FKBP12.6 [2] it was 17 ± 1.3 nM; on FKBP51FK1, 25 ± 6 nM; on FKBP52FK1, 43 ± 11 nM.
In the case of `O=C1[C@@H]2CCC[C@H]([C@@H](CO)CN1Cc1ccccn1)N2S(=O)(=O)c1ccc2ncsc2c1` [25a], the Ki was determined as 190 nM at FKBP52; 5.5 nM at FKBP12 [3]; 3980 nM on LpMip (read-out: Ki LpMip); 283 nM at FKBP51; 3.8 nM on FKBP12.6 [4].
Consider `O=C1[C@@H]2CCC[C@H]([C@@H](CO)CN1Cc1ccccn1)N2S(=O)(=O)c1cc(Cl)cc(Cl)c1` [23a], for which the Ki was 19 nM at FKBP52; 0.35 nM on FKBP12 [3]; 467 nM on LpMip (read-out: Ki LpMip); 33 nM on FKBP51; 3.4 nM on FKBP12.6 [4].
Consider `C[C@@H](c1ccccn1)N1C[C@H](CO)[C@H]2CCC[C@@H](C1=O)N2S(=O)(=O)c1ccc2ncsc2c1` [25b, (1S,5S,6R)-10-(benzo[d]thiazol-6-ylsulfonyl)-5-(hydroxymethyl)-3-((S)-1-(pyridin-2-yl)ethyl)-3,10-diazabicyclo[4.3.1]decan-2-one], for which the Ki at FKBP12 [3] came to 1.5 nM; on LpMip it was 237 nM; on FKBP12.6 [4] it was 0.7 nM.
On to `C[C@@H](c1ccccn1)N1C[C@H](CO)[C@H]2CCC[C@@H](C1=O)N2S(=O)(=O)c1cc(Cl)cc(Cl)c1` [23b, (1S,5S,6R)-10-((3,5-dichlorophenyl)sulfonyl)-5-(hydroxymethyl)-3-((S)-1-(pyridin-2-yl)ethyl)-3,10-diazabicyclo[4.3.1]decan-2-one], for which the Ki on FKBP52 amounted to 1.2 nM; at FKBP12 [3] it was 0.06 nM; at LpMip it was 36 nM; on FKBP51, 1.9 nM; on FKBP12.6 [4], 0.31 nM.
With `C=C[C@H]1CN(Cc2ccccn2)C(=O)[C@@H]2CCC[C@H]1N2S(=O)(=O)c1ccc2ncsc2c1` [7a], the Ki came out at 276 nM on FKBP52; 7.5 nM on FKBP12 [3]; 5840 nM at LpMip (read-out: Ki LpMip); 294 nM on FKBP51; 6 nM at FKBP12.6 [4].
Turning to `C=C[C@H]1CN(Cc2ccccn2)C(=O)[C@@H]2CCC[C@H]1N2S(=O)(=O)c1cc(Cl)cc(Cl)c1` [6a], the Ki at FKBP52 came to 54 nM; at FKBP12 [3] it was 1.3 nM; on LpMip (read-out: Ki LpMip) it was 1350 nM; at FKBP51 it was 119 nM; at FKBP12.6 [4], 17 nM.
Consider `C=C[C@H]1CN([C@@H](C)c2cn(-c3ccc(OC)cc3)nn2)C(=O)[C@@H]2CCC[C@H]1N2S(=O)(=O)c1cc(Cl)cc(Cl)c1` [19b, (1S,5S,6R)-10-((3,5-dichlorophenyl)sulfonyl)-3-((S)-1-(1-(4-methoxyphenyl)-1H-1,2,3-triazol-4-yl)ethyl)-5-vinyl-3,10-diazabicyclo[4.3.1]decan-2-one], for which the Ki at FKBP52 turned out to be 91 nM; on FKBP12 [3], 4.3 nM; on FKBP12.6 [4] it was 16 nM.
`CC[C@H]1CN(Cc2ccccn2)C(=O)[C@@H]2CCC[C@H]1N2S(=O)(=O)c1ccc2ncsc2c1` [26a]: the Ki on FKBP52 worked out at 285 nM; at FKBP12 [3], 6.5 nM; at LpMip (read-out: Ki LpMip), 5150 nM; at FKBP51, 410 nM; at FKBP12.6 [4], 5.2 nM.
Turning to `CC[C@H]1CN([C@@H](C)c2ccccn2)C(=O)[C@@H]2CCC[C@H]1N2S(=O)(=O)c1ccc2ncsc2c1` [26b, (1S,5S,6R)-10-(benzo[d]thiazol-6-ylsulfonyl)-5-ethyl-3-((S)-1-(pyridin-2-yl)ethyl)-3,10-diazabicyclo[4.3.1]decan-2-one], the Ki amounted to 22 nM at FKBP52; 1.9 nM at FKBP12 [3]; 284 nM on LpMip; 27 nM at FKBP51; 0.6 nM at FKBP12.6 [4].
Regarding `C=C[C@H]1CN([C@H](C)c2ccccn2)C(=O)[C@@H]2CCC[C@H]1N2S(=O)(=O)c1cc(Cl)cc(Cl)c1` [6e], the Ki on FKBP52 was more than 1000 nM; at FKBP12 [3] it was 130 nM; on FKBP51, more than 1000 nM; on FKBP12.6 [4] it was 812 nM.
On to `COC[C@H]1CN(Cc2ccccn2)C(=O)[C@@H]2CCC[C@H]1N2S(=O)(=O)c1cc(Cl)cc(Cl)c1` [24a], for which the inhibition constant Ki stood at 11 nM on FKBP52; 0.65 nM on FKBP12 [3]; 497 nM at LpMip (read-out: Ki LpMip); 12 nM on FKBP51; 3.4 nM on FKBP12.6 [4].
Consider `COC[C@H]1CN([C@@H](C)c2ccccn2)C(=O)[C@@H]2CCC[C@H]1N2S(=O)(=O)c1cc(Cl)cc(Cl)c1` [24b, (1S,5S,6R)-10-((3,5-dichlorophenyl)sulfonyl)-5-(methoxymethyl)-3-((S)-1-(pyridin-2-yl)ethyl)-3,10-diazabicyclo[4.3.1]decan-2-one], for which the Ki is 0.35 nM on FKBP52; 0.04 nM on FKBP12 [3]; 36 nM on LpMip; 0.83 nM on FKBP51; 0.41 nM at FKBP12.6 [4].
As to `C=C[C@H]1CN([C@H](C)c2ccccn2)C(=O)[C@@H]2CCC[C@H]1N2S(=O)(=O)c1ccc2ncsc2c1` [7e], the Ki on FKBP52 was 3450 nM; at FKBP12 [3] it was 240 nM; on FKBP51 it was 4550 nM; on FKBP12.6 [4], 157 nM.
Regarding `C=C[C@H]1CN([C@@H](C)c2ccccn2)C(=O)[C@@H]2CCC[C@H]1N2S(=O)(=O)c1ccc2ncsc2c1` [7d, (1S,5S,6R)-10-(benzo[d]thiazol-6-ylsulfonyl)-3-((S)-1-(pyridin-2-yl)ethyl)-5-vinyl-3,10-diazabicyclo[4.3.1]decan-2-one], the Ki on FKBP52 was 29 nM; on FKBP12 [3], 2.2 nM; at LpMip, 366 nM; on FKBP51, 33 nM; at FKBP12.6 [4], 0.9 nM.
With `C=C[C@H]1CN([C@@H](C)C(=O)O)C(=O)[C@@H]2CCC[C@H]1N2S(=O)(=O)c1cc(Cl)cc(Cl)c1` [21b, (2S)-2-((1S,5S,6R)-10-((3,5-dichlorophenyl)sulfonyl)-2-oxo-5-vinyl-3,10-diazabicyclo[4.3.1]decan-3-yl)propanoic acid], the Ki on FKBP52 was found to be 80 nM; on FKBP12 [3], 13 nM; at LpMip, 284 nM; on FKBP51 it was 22 nM.
In the case of `C=C[C@H]1CN(CC(=O)O)C(=O)[C@@H]2CCC[C@H]1N2S(=O)(=O)c1cc(Cl)cc(Cl)c1` [21a], the Ki is 320 nM at FKBP52, 33.4 nM at FKBP12 [3], 5150 nM at LpMip (read-out: Ki LpMip) and 172 nM at FKBP51.
As for `C=C[C@H]1CN(Cc2cn(-c3ccc(OC)cc3)nn2)C(=O)[C@@H]2CCC[C@H]1N2S(=O)(=O)c1cc(Cl)cc(Cl)c1` [19a], the Ki came to 361 nM on FKBP52, 15 nM on FKBP12 [3] and 16 nM on FKBP12.6 [4].
The corresponding values for `C=C[C@H]1CN([C@H](C)c2cn(-c3ccc(OC)cc3)nn2)C(=O)[C@@H]2CCC[C@H]1N2S(=O)(=O)c1cc(Cl)cc(Cl)c1` [19c] are 1030 nM, 233 nM and 390 nM.
With `C=C[C@H]1CN([C@@H](C)c2ccccn2)C(=O)[C@@H]2CCC[C@H]1N2S(=O)(=O)c1cc(Cl)cc(Cl)c1` [6d, (1S,5S,6R)-10-((3,5-dichlorophenyl)sulfonyl)-3-((S)-1-(pyridin-2-yl)ethyl)-5-vinyl-3,10-diazabicyclo[4.3.1]decan-2-one], the Ki amounted to 2.2 nM on FKBP52; 0.15 nM at FKBP12 [3]; 171 nM at LpMip; 2.6 nM at FKBP51; 0.41 nM at FKBP12.6 [4].
